{
  "source": "patent US10413517B2",
  "about": "“Composition and method for the treatment of neurological diseases and cerebral injury” (UNIVERSITY OF NOTRE DAME DU LAC, priority 2014, dated 2019)",
  "type_in_all_cases": "in vivo, mouse",
  "key": {"[1]": {"system": "macrophages in the liver", "assay": "Liver macrophage labeling (anti-CTSS immunofluorescence)", "settings": "100 days, Vo 50 mg/Kg, HPBCD 2000 mg/Kg, TCF", "description": "(§1) Mice were sacrificed by asphyxiation using CO2. Harvested organs were immersed fixed in 10% neutral buffered formalin (˜4% formaldehyde) for 24 hrs at RT. The organs were subsequently stored in 70% alcohol at RT until transfer to paraffin. Paraffin-embedded tissue sections (4-5 μm) were dewaxed in xylene and alcohol. Calbindin antigen retrieval was done by pre-incubating deparaffinized samples with 0.05% proteinase K (Dako, Germany) in 50 mM Tris-HCl (pH 7.5) for 8 min at RT. CTSS and NPC1 was retrieved by boiling the sections in acidic condition for 30 min. Blocking was done either with 2% goat serum (for calbindin and NPC1) or 2% rabbit serum (for cathepsin S) for 30 min at RT. Sections were incubated with anti-calbindin (1:1000, C9848, Sigma), anti-cathepsin S (20 μg/ml, M-19, Santa Cruz Biotechnology), anti-NPC1 (custom made against human NPC1 protein, 20 μg/ml) overnight at 4° C. The appropriate FITC or TRITC-conjugated secondary IgG (MP Biomedicals, Solon, Ohio, USA) antibodies were used at 1:200 dilution. Sections were subsequently washed with PBS containing DAPI (0.5 μg/ml). Vectashield (Vector laboratories) was used as mounting medium and processed for fluorescence microscopy.\n(§2) Tissue sections after IFA and filipin stained fibroblasts were visualized with 40× oil-immersion objective lens (NA 1.35). Filipin stain was visualized using DAPI filter. Digital image collection were performed using an Olympus IX inverted fluorescence microscope and a Photometrix cooled CCD camera (CH350/LCCD) driven by DeltaVision software from Applied Precision (Seattle, Wash., USA). DeltaVision software (softWoRx) was used to deconvolve these images. Images are single optical sections. Images were analyzed using ImageJ software (NIH, MD, USA)."}, "[2]": {"system": "Calbindin1 transcripts", "assay": "qPCR of Calbindin1 transcripts in the brain", "settings": "day 100, once weekly dosing; Vo 50 mg/Kg; 2×HPBCD 4000 mg/Kg; TCF", "description": "Vorinostat (50 mg/Kg)—Vorinostat was first dissolved in DMSO (100 mg/ml) and then diluted with 9 volume of Polyethylene Glycol 400 (PEG). This drug solution was named as ‘solution A’. Solution A was diluted with equal volume of water where the final concentration of each component was as follows; Vorinostat, 5 mg/ml; DMSO, 5% and PEG, 45%. Mice were given weekly intraperitoneal (i.p) injections starting at 21 days. Vorinostat (100 mg/Kg)—Vorinostat was first dissolved in DMSO (200 mg/ml) and then mixed with 9 volumes of PEG. Rest of the methods and injections plan were as described above. HPBCD (4000 mg/Kg)—40% HPBCD solution prepared in water. Mice were given weekly i.p injections starting at 7 days. HPBCD (2000 mg/Kg)—20% HPBCD solution prepared in water. Mice were given weekly i.p injections starting at 7 days. TCF (Vorinostat, 50 mg/Kg+HPBCD, 2000 mg/Kg, DMSO, 5%+PEG, 45%)—To prepare the formulation, the ‘solution A’ was first prepared as described above and equal volume of 40% HPBCD solution was slowly layered on top of it. The solution was gently mixed for 10 min at RT on rocker set at medium speed. […]\nQuantitative PCR (qPCR) was performed using Power SYBR Green RNA-to-CT 1-Step Kit and an ABI Prism 7500 Fast real-time PCR system (Applied Biosystems, Grand Island, USA). […] The relative amount of transcript was determined using comparative CT method. […]"}, "[3]": {"system": "Purkinje cells", "assay": "Calbindin immunofluorescence, Purkinje cell count in cerebellar sections", "settings": "day 100, once weekly dosing", "description": "as §1, §2"}, "[4]": {"system": "Npc1^nmf164 mice", "assay": "Neurobehavioral assessment (cumulative disease score 0-13)", "settings": "for cumulative neurobehavioral disease score: at 105-112 days, scale 0-13, Vo 50 mg/Kg, 2×HPBCD 4000 mg/Kg, TCF; for onset of individual symptoms (gait, grooming, limb tone, weight): weekly i.p. treatment", "description": "A modified version of previously described method (Carroll et al., 2010) was used for assessing the neurobehavioral functions in mice. Six different parameters (FIG. 3A) associated with neurobehavioral functions of mice were assessed. Each mouse was assessed individually in an observation box (length, 31.8 cm, width, 19.8 cm and height, 10.5 cm) with a grid floor. A mouse was assessed for tremor (0 and 2), body position (0, 1 and 2), gait (0, 1 and 2), grooming (0, 1 and 2), limb tone (0, 1 and 2), and weight loss (0, 1, 2 and 3). For each symptom except weight, a mouse received a score 0 if no symptom was observed and score 2 when the most severe impairment in the function was seen. A mouse was given score 0 for weight loss below 5%, 1 for 5-10%, 2 for >10 and up to 20%, and 3 for >20 up to 30%. A cumulative score of 0-3 correlate with no neurobehavioral impairment and a score of 13 is the most impaired neurobehavioral function. Operator-independence scoring was also tested by two independent blinded operators on 6 NPC (Npc1^nmf164) and 4 healthy control (Npc1^+/nmf164) mice."}, "[5]": {"system": "histone H3 and H4", "assay": "Histone acetylation in the brain (western blot)", "settings": "within an hour of i.p. administration; Vo 50 mg/Kg in PEG; HPBCD 2000 mg/Kg", "description": "Npc1^nmf164 mice (6-7 weeks) were injected with either Vorinostat (50 mg/kg) or TCF through i.p route. Mice were sacrificed 1 hpi (1 hour post-injection) by asphyxiation using CO2. After homogenization of tissue, Histones were extracted using EpiQuik Total Histone extraction kit (Epigentek, NY, USA) as per manufacturer's instructions. Antibodies to Histone H3 (Lys14) and H4 (Lys5/8/12/16) from Millipore (CA, USA) were used in western blotting."}},
  "data": [
    {"smiles": "O=C(CCCCCCC(=O)Nc1ccccc1)NO", "note": "[vorinostat]", "values": [
      {"measurement": "macrophages in the liver (histology)", "setting": "[1]", "result": "also had effect but less so than TCF or HPBCD"},
      {"measurement": "macrophages in the liver (histology)", "setting": "[1]; listed as Vo", "result": "reduced the clustering of macrophages"},
      {"measurement": "expression of calbindin transcripts in the brain", "setting": "[2]", "result": "no change or depressed levels of calbindin transcripts"},
      {"measurement": "Purkinje cells in the cerebellum (in words)", "setting": "[3]", "result": "no effect"},
      {"measurement": "Purkinje cells in the cerebellum (in words)", "setting": "[3]; listed as Vo", "result": "Loss of Purkinje cells"},
      {"measurement": "cumulative neurobehavioral disease score", "setting": "[4]", "result": "9-11"},
      {"measurement": "onset of individual symptoms (gait, grooming, limb tone, weight)", "setting": "[4]", "result": "no consistent, significant advantage in any symptomatic read out"},
      {"measurement": "acetylation of histone 3 or 4 (H3 or H4) in the brain (in words)", "setting": "[5]", "result": "low levels of acetylation"}
    ]},
    {"smiles": "CC(O)COC[C@H]1O[C@@H]2O[C@H]3[C@H](O)[C@@H](O)[C@@H](O[C@H]4[C@H](O)[C@@H](O)[C@@H](O[C@H]5[C@H](O)[C@@H](O)[C@@H](O[C@H]6[C@H](O)[C@@H](O)[C@@H](O[C@H]7[C@H](O)[C@@H](O)[C@@H](O[C@H]8[C@H](O)[C@@H](O)[C@@H](O[C@H]1[C@H](O)[C@H]2O)O[C@@H]8COCC(C)O)O[C@@H]7COCC(C)O)O[C@@H]6COCC(C)O)O[C@@H]5COCC(C)O)O[C@@H]4COCC(C)O)O[C@@H]3COCC(C)O", "note": "(stereo partly drawn) [HPBCD, 2-Hydroxypropyl-β-cyclodextrin]", "values": [
      {"measurement": "macrophages in the liver (histology)", "setting": "[1]", "result": "Foamy macrophages were barely seen"},
      {"measurement": "expression of calbindin transcripts in the brain", "setting": "[2]", "result": "no change or depressed levels of calbindin transcripts"},
      {"measurement": "Purkinje cells in the cerebellum (in words)", "setting": "[3]", "result": "Few lightly stained Purkinje cells"},
      {"measurement": "Purkinje cells in the cerebellum (in words)", "setting": "[3]; listed as 2×HPBCD", "result": "minor protection of Purkinje cell"},
      {"measurement": "cumulative neurobehavioral disease score", "setting": "[4]", "result": "6-8"},
      {"measurement": "onset of individual symptoms (gait, grooming, limb tone, weight)", "setting": "[4]", "result": "Worsening in gait, grooming and weight were also delayed by 2×HPBCD, but less so than by the TCF"},
      {"measurement": "acetylation of histone 3 or 4 (H3 or H4) in the brain (in words)", "setting": "[5]", "result": "neither vehicle control (PEG+DMSO) nor HPBCD stimulated significant acetylation"}
    ]}
  ]
}
